Patent publication US20120015032A1, “COMBINATION PREPARATION COMPRISING INHIBITOR OF HMG-COA REDUCTASE AND ASPIRIN AND METHOD FOR MANUFACTURING THE SAME” (HANALL PHARMACEUTICAL COMPANY, LTD., priority 2007, published 2012)

Columns and labels:
Type in all cases: in vivo, rat
SD rats = experiment: Test of antiplatelet aggregation effect (bleeding time) in rats
Experimental: (§1) Animal tests supporting the effects of the present invention were carried out as described in Table 10 below. [table]

rats = experiment: Test of comparison of gastric mucosal injury in rats (index of gastric mucosal bleeding); details: Table 16
SHR rats = experiment: Test of antihypertensive effect in rats; details: light, p.o.
Experimental: as §1

[1] = Day 0, simvastatin 5 mg/kg alone
[2] = Day 5, simvastatin 5 mg/kg alone

| Compound | platelet aggregation inhibitory effect (SD rats; rats, bleeding time, summary of Table 12) | occurrence of gastrointestinal disturbance (rats) | Diastolic blood pressure (DBP) (SHR rats; [1]) | Mean blood pressure (MBP) (SHR rats; [1]) | Systolic blood pressure (SBP) (SHR rats; [1]) | Diastolic blood pressure (DBP) (SHR rats; [2]) | Mean blood pressure (MBP) (SHR rats; [2]) | Systolic blood pressure (SBP) (SHR rats; [2]) | Bleeding time (SD rats; SD rats, simvastatin alone, light conditions, p.o., 2 hrs after administration) |
| --- | --- | --- | --- | --- | --- | --- | --- | --- | --- |
| CC(=O)Oc1ccccc1C(=O)O [aspirin] | increased in proportion to the dose of aspirin | increased in proportion to an increase in the dose of aspirin | – | – | – | – | – | – | – |
| CCC(C)(C)C(=O)O[C@H]1C[C@@H](C)C=C2C=C[C@H](C)[C@H](CC[C@@H]3C[C@@H](O)CC(=O)O3)[C@H]21 [simvastatin] | – | – | 124.3 ± 15.5 | 139.0 ± 12.4 | 171.0 ± 8.7 | 125.1 ± 17.1 | 131.3 ± 12.6 | 173.9 ± 9.2 | 782 ± 429 s |
